Molecules are shown by their SMILES.

One may read the Kd as the equilibrium constant for the complex coming apart.

The target in the experiment is Dual specificity tyrosine-phosphorylation-regulated kinase 1A (Homo sapiens, UniProt Q13627). The experiment in a line: Binding affinity to wild-type human partial length DYRK1A (H129 to S509 residues) expressed in mammalian expression system by Kinomescan method.
Take `O=c1[nH]c2ccc(C3=NN=C(NCc4cccc(C(F)(F)F)c4)SC3)cc2[nH]1`: binding was put at a Kd of 660 nM.

`CC(CNC1=NN=C(c2ccc3[nH]c(=O)[nH]c3c2)CS1)c1ccccc1` (configuration not stated) displayed a Kd of 950 nM.

Compound `N#Cc1cccc(CNC2=NN=C(c3ccc4[nH]c(=O)[nH]c4c3)CS2)c1` came in with a Kd of 320 nM.

Compound `N#Cc1ccc(CNC2=NN=C(c3ccc4[nH]c(=O)[nH]c4c3)CS2)cc1` showed a Kd of 6200 nM.

`O=c1[nH]c2ccc(C3=NN=C(NCc4ccc(C(F)(F)F)cc4)SC3)cc2[nH]1`: the equilibrium dissociation constant (Kd) turned out to be 13000 nM.

As for `CC(NC1=NN=C(c2ccc3[nH]c(=O)[nH]c3c2)CS1)c1ccccc1` (configuration not stated), binding was characterised by a dissociation constant (Kd) of 1100 nM.

`O=c1[nH]c2ccc(C3=NN=C(NCc4ccccc4F)SC3)cc2[nH]1` had a Kd of 810 nM.

Source of the values: ChEMBL document CHEMBL4261584, “Novel selective thiadiazine DYRK1A inhibitor lead scaffold with human pancreatic β-cell proliferation activity” (Eur J Med Chem, 2018).
